Source: US9596855B2, “Small molecule inhibitors of biofilm formation and the novel use of previously identified compounds for inhibition of biofilm formation and applications for drug therapy and medical device coating” (priority 2013, dated 2017)

Tests used:
[1] = tested on: tested strains; experiment: bactericidal activity against tested strains; type: cell-based; conditions: any of the tested strains
[2] = tested on: HeLa cells; experiment: mammalian cell cytotoxicity; type: cell-based; conditions: up to the highest tested concentration (250 μM)
[3] = tested on: V. cholerae; experiment: image-based biofilm inhibition screening platform; type: cell-based
Method: In the present study, a 1,248-member prefractionated marine natural product library was evaluated for biofilm inhibitory activity using a recently-developed image-based screening platform. […] Prefraction 1671D is a semi-purified mixture that contains mixture of several individual compounds. Prefraction 1671D was therefore subjected to one-compound-one-well ‘peak library’ fractionation using the inventors' standard protocol that automatically separates the constituents of prefractions of interest based on HPLC retention times, and connects specific constituents to observed biological activities through secondary screening.
This activity was coupled with a striking biofilm macrocolony phenotype, providing strong justification for purification and full structural characterization of the active constituent. It was from 1671D that “compound 5” was isolated.

[4] = tested on: V. cholerae; experiment: co-dosing of biofilm inhibitor with sub-MIC and sub-BIC antibiotics, image-based screen

C=C1Oc2cc(OC)cc(C(=O)OC)c2NC1=O [Compound 5]
bactericidal activity [1]: no bactericidal activity | mammalian cell cytotoxicity [2]: no mammalian cell cytotoxicity | IC50 ([3]; Vibrio cholerae, read-out: biofilm inhibitory activity (IC50)): 60.1 µM | biofilm phenotype (epifluorescence and confocal images) ([3]; on treatment with compound): micro-colonies initially become less organized and less tightly packed | biofilm-clearing efficacy ([4]; with sub-BIC concentrations of ceftazidime): improve | biofilm-clearing efficacy ([4]; with sub-BIC concentrations of ciprofloxacin): improve
